US12012399B2, “Microbiocidal quinoline dihydro-(thiazine)oxazine derivatives” (priority 2018, dated 2024)

Key:
[1] = system: Botryotinia fuckeliana (Botrytis cinerea); assay: Botryotinia fuckeliana (Botrytis cinerea) / liquid culture (gray mould); type: cell-based; conditions: 72 h, compared to untreated control, growth inhibition determined photometrically 3-4 days after application
[2] = system: Glomerella lagenarium (Colletotrichum lagenarium); assay: Glomerella lagenarium (Colletotrichum lagenarium) / liquid culture (anthracnose); type: cell-based; conditions: Colletotrichum orbiculare, compared to untreated control, growth inhibition measured photometrically 3-4 days after application
Fusarium culmorum = assay: microbe, parasite or virus in culture; type: cell-based; conditions: read-out: control of Fusarium culmorum
[3] = system: Monographella nivalis (Microdochium nivale); assay: Monographella nivalis (Microdochium nivale) / liquid culture (foot rot cereals); type: cell-based; conditions: compared to untreated control, growth inhibition determined photometrically 4-5 days after application
[4] = system: Magnaporthe grisea (Pyricularia oryzae); assay: microbe, parasite or virus in culture; type: cell-based; conditions: read-out: control of Magnaporthe grisea
Sclerotinia sclerotiorum = assay: microbe, parasite or virus in culture; type: cell-based; conditions: read-out: control of Sclerotinia sclerotiorum
[5] = system: Mycosphaerella graminicola (Septoria tritici); assay: Mycosphaerella graminicola (Septoria tritici) / liquid culture (Septoria blotch); type: cell-based; conditions: Zymoseptoria tritici, compared to untreated control, growth inhibition determined photometrically 4-5 days after application
[6] = system: Mycosphaerella graminicola (Septoria tritici); assay: Mycosphaerella graminicola (Septoria tritici) on wheat / preventative; type: in vivo; conditions: Zymoseptoria tritici, wheat plants sprayed, inoculated one day after application, assessed 16-19 days after application vs untreated control

Compound	inhibition of growth at 20 ppm [1] [%]	inhibition of growth at 20 ppm [2] [%]	inhibition of growth at 20 ppm (Fusarium culmorum) [%]	inhibition of growth at 20 ppm [3] [%]	inhibition of growth at 20 ppm [4] [%]	inhibition of growth at 20 ppm (Sclerotinia sclerotiorum) [%]	inhibition of growth at 20 ppm [5] [%]	melting point [°C]	pest or weed control at 60 ppm [6] [%]
C[C@@]1(Cc2ccccc2)C[C@@](C)(CCl)OC(c2cnc3c(F)cccc3c2)=N1 [E-10, (4R,6S)-4-benzyl-6-(chloromethyl)-2-(8-fluoro-3-quinolyl)-4,6-dimethyl-5H-1,3-oxazine]	≥ 80	≥ 80	≥ 80	≥ 80	≥ 80	≥ 80	≥ 70	125 to 130	–
CC1(C)CC(Cc2ccccc2)N=C(c2cnc3c(F)cccc3c2)O1 (stereo not drawn) [E-13, 4-benzyl-2-(8-fluoro-3-quinolyl)-6,6-dimethyl-4,5-dihydro-1,3-oxazine]	≥ 80	≥ 80	≥ 80	≥ 80	≥ 80	≥ 80	≥ 70	90 to 92	–
Cc1nc2c(F)cccc2cc1C1=NC(C)(Cc2ccccc2)CC(C)(C)O1 (stereo not drawn) [E-16, 4-benzyl-2-(8-fluoro-2-methyl-3-quinolyl)-4,6,6-trimethyl-5H-1,3-oxazine]	≥ 80	≥ 80	≥ 80	≥ 80	≥ 80	≥ 80	≥ 70	–	–
CC1(C)CC(Cc2cccc(F)c2)N=C(c2cnc3c(F)c(F)ccc3c2)O1 (stereo not drawn) [E-19, 2-(7,8-difluoro-3-quinolyl)-4-[(3-fluorophenyl)methyl]-6,6-dimethyl-4,5-dihydro-1,3-oxazine]	≥ 80	–	≥ 80	≥ 80	≥ 80	≥ 80	≥ 70	95 to 98	≥ 80
CC1(C)CC(Cc2ccccc2F)N=C(c2cnc3c(F)c(F)ccc3c2)O1 (stereo not drawn) [E-20, 2-(7,8-difluoro-3-quinolyl)-4-[(2-fluorophenyl)methyl]-6,6-dimethyl-4,5-dihydro-1,3-oxazine]	≥ 80	–	≥ 80	≥ 80	≥ 80	–	–	–	≥ 80
Fc1ccc2cc(C3=NC(Cc4ccccc4)CC4(CCCC4)O3)cnc2c1F (stereo not drawn) [E-21, 9-benzyl-7-(7,8-difluoro-3-quinolyl)-6-oxa-8-azaspiro[4.5]dec-7-ene]	≥ 80	–	–	≥ 80	≥ 80	–	≥ 70	–	≥ 80
Cc1nc2c(F)c(F)ccc2cc1C1=NC(Cc2ccccc2)CC(C)(C)O1 (stereo not drawn) [E-22, 4-benzyl-2-(7,8-difluoro-2-methyl-3-quinolyl)-6,6-dimethyl-4,5-dihydro-1,3-oxazine]	≥ 80	–	≥ 80	≥ 80	–	≥ 80	≥ 70	–	≥ 80
Fc1ccc2cc(C3=NC(Cc4ccccc4)CC4(CCC4)O3)cnc2c1F (stereo not drawn) [E-23, 8-benzyl-6-(7,8-difluoro-3-quinolyl)-5-oxa-7-azaspiro[3.5]non-6-ene]	≥ 80	–	–	≥ 80	–	–	–	159 to 162	≥ 80
Cc1nc2c(F)c(F)ccc2cc1C1=NC(Cc2ccc(F)cc2)CC(C)(C)O1 (stereo not drawn) [E-24, 2-(7,8-difluoro-2-methyl-3-quinolyl)-4-[(4-fluorophenyl)methyl]-6,6-dimethyl-4,5-dihydro-1,3-oxazine]	≥ 80	–	–	≥ 80	–	–	≥ 70	128 to 132	≥ 80
CC1(C)CC(Cc2ccccc2)N=C(c2cnc3c(F)c(F)ccc3c2)O1 (stereo not drawn) [F-5]	≥ 80	–	≥ 80	≥ 80	≥ 80	≥ 80	≥ 70	–	≥ 80
CC1(C)CC(Cc2ccc(F)cc2)N=C(c2cnc3c(F)c(F)ccc3c2)O1 (stereo not drawn) [F-7]	–	–	≥ 80	–	–	–	–	117 to 119	≥ 80
